# Literature values, collected in patent US20240024348A1, “METHODS AND COMPOSITIONS FOR THE TREATMENT OF GLAUCOMA AND RELATED CONDITIONS” (Ophthalmic Therapeutic Innovation, priority 2022, published 2024).
# “Also recorded” adds a separate entry of the source. Like-named read-outs stand apart in the source and are kept apart here.
# Experiments:
# patients with POAG/OH = conditions: cited from earlier work; for IOP reduction: Ph2, 1.5% BID
# [1] = system: patients or human subjects; conditions: cited from earlier work; for conjunctiva hyperemia: eye drops, clinical trials
# [2] = system: Dutch-belted pigmented and normotensive rabbit eyes; conditions: single dose 0.6% eye drop, cited from earlier work
# [3] = system: POAG/OH patients with Latanoprost poor responders; conditions: cited from earlier work
# patients = conditions: 3% QD and 6% QD with 0.005% QD Lantanoprost; cited from earlier work
# young and aged C57 mice = conditions: 7 days, cited from earlier work
# NAION mice model = conditions: cited from earlier work
# human TM cell [4] = conditions: human TM cell culture; cited from earlier work
# aged mice = conditions: 6% treatment, vs placebo treated eyes; cited from earlier work
# [5] = system: ischemia-reperfusion rodent model; conditions: cited from earlier work
# light damaged rat models = conditions: cited from earlier work
# rat = conditions: cited from earlier work
# patient with NTG = conditions: cited from earlier work
# [6] = system: patients with refractory glaucoma; conditions: two individual patients with refractory glaucoma; cited from earlier work
# human TM cell [7] = conditions: high concentration (10 ug/mL); cited from earlier work
# [8] = human donor eyes; cited from earlier work
molecule,measurement,setting,value
Trabodenoson,IOP dose response curve (IOP reduction from baseline IOP),"patients with POAG/OH; 14-Day Phase 2 dose escalation, 0.15%, 0.3%, 0.6%, 1.5% BID",0.6% BID peaked at the top
same,IOP reduction,"patients with POAG/OH; day 14, baseline IOP>21 mmHg",6.5 mmHg
same,IOP reduction,"patients with POAG/OH; day 14, baseline IOP>25 mmHg",> 7 mmHg
same,"IOP improvement, day 28 vs Day 14","patients with POAG/OH; Phase 2, 1.5% BID eye drops, baseline IOP>21 mmHg, in 2 weeks",0.9 mmHg
same,IOP reduction POAG vs OH,"patients with POAG/OH; Phase 2, 1.5% BID, early-stage population",higher IOP reduction in patients with POAG than that with OH
same,IOP reduction from the diurnal IOP at day -1,"patients with POAG/OH; Phase 2 dose escalation, Day 14","1.5% BID is more effective than 0.15% BID, 0.3% BID, 0.6% BID at Day 14"
same,Phase 3 IOP endpoint,"patients with POAG/OH; Phase 3 clinical trials, 3 months",failed to meet the IOP endpoint at 3 months
same,IOP time course,"patients with POAG/OH; Phase 3 monotherapy, 6% QD, 3 months, vs placebo",incremental increase of the IOP reduction; also recorded: continuous IOP improvement over a course of 3 months with clinical significance compared to placebo
same,maximal IOP reduction,"patients with POAG/OH; eye drops 1.5% BID, day 28 (4 weeks), early stage POAG/OH",6-7 mmHg
same,time before reaching a steady state,"patients with POAG/OH; eye drops, early stage POAG/OH with very mild damage",more than 3 months
same,systemic clinical safety and ocular tolerability,"[1]; 819 subjects, 2 weeks to 3 months, 0.15% BID to 6% QD, up to 18% single dose",excellent systemic clinical safety and ocular tolerability
same,conjunctiva hyperemia,[1],2.56%
same,IOP reduction from the baseline,[2]; at 2 hours,25%-27%
same,time of IOP return to the baseline,[2],6 h
same,IOP time course,"[3]; 1.5% BID 8 weeks then 3.0% QD 4 weeks, add-on to Latanoprost, 12 weeks",robust and continuous IOP improvement over the course of 12 weeks; also recorded: robust and incremental IOP improvement over a course of 12-week treatment time
same,effectiveness POAG vs OH,[3]; Lantanoprost poor responders,more effective in patients with POAG than with OH
same,IOP efficacy of combination vs Lantanoprost alone,patients,less effective than 0.005% QD Lantanoprost alone
same,IOP reduction over time,"young and aged C57 mice; 3% QD, young C57 mice",sustained over 7 days
same,IOP lowering effect over time,"young and aged C57 mice; 6% QD, aged C57 mice",slowly diminished at day 7
same,axon loss and myelination damage of optic nerve (EM),"NAION mice model; 6% eye drops BID, vs placebo control",significant reduction of the axon loss and myelination damage
same,RGC neural protection,NAION mice model; NAION mice model,potent neural protectant for RGC cell rescue
same,MMP-14 expression,human TM cell [4],upregulating MMP-14 expression
same,collagen IV and fibronectin,human TM cell [4],downregulation of collagen IV and fibronectin
same,TM morphology / ECM,aged mice,TM mesh pores opening up and ECM remodeling with enlarged ECM space
same,protection of RGC and outer layer photoreceptors,[5],demonstrated neural protection for both RGC inner layer of the neurons and the outer layer of neurons (photoreceptors); also recorded: more potent in rescuing and protecting the RGC and outer layer photoreceptors from apoptosis
same,photoreceptor cell loss,light damaged rat models,rescuing photoreceptor cell loss
same,heart rate,rat,reduces the heart rate in rat
"Cc1ccc(C(=O)OCc2ccc([C@@H](CN)C(=O)Nc3ccc4cnccc4c3)cc2)c(C)c1 [Rhopressa, reference compound]",conjunctiva hyperemia,[1],50%
"O=C(CCC/C=C\C[C@@H]1[C@@H](CC[C@@H](O)CCc2ccccc2)[C@H](O)C[C@@H]1O)OCCCCO[N+](=O)[O-] [Vyzulta, Latanoprost Bunod]",IOP improvement,"patient with NTG; during the first 12-week of 12-month study, Japanese population",less than 1.0 mmHg
same,IOP improvement,patient with NTG; within the first 12-week of 12-month study,~0.6 mmmHg
CCCCCCCC(=O)CC[C@@H]1[C@@H](C/C=C\CCCC(=O)OC(C)C)[C@@H](O)C[C@H]1O [Rescula],IOP profile,[6],slow mode and accumulative improvement over time
CCNC(=O)CCC/C=C\C[C@@H]1[C@@H](/C=C/[C@@H](O)CCc2ccccc2)[C@H](O)C[C@@H]1O [Bimatoprost],MMP-9 expression,human TM cell [7],upregulates MMP-9 expression
CC(C)OC(=O)CCC/C=C\C[C@@H]1[C@@H](CC[C@@H](O)CCc2ccccc2)[C@H](O)C[C@@H]1O [Latanoprost],MMP-9 expression,human TM cell [7],upregulates MMP-9 expression
"Brc1c(NC2=NCCN2)ccc2nccnc12 [Brimonidine, reference compound]",protection of RGC and outer layer photoreceptors,[5],lacks effects toward the outer layer photoreceptor cells
same,protection of RGC and outer layer photoreceptors,[5]; listed as brimonidine,did not protect photoreceptor loss
"MMP-2: matrix metalloproteinase (protein, UniProt P08253 110-660, looked up) 72 kDa type IV collagenase: YNFFPRKPKWDKNQITYRIIGYTPDLDPETVDDAFARAFQVWSDVTPLRFSRIHDGEADIMINFGRWEHGDGYPFDGKDGLLAHAFAPGTGVGGDSHFDDDELWTLGEGQVVRVKYGNADGEYCKFPFLFNGKEYNSCTDTGRSDGFLWCSTTYNFEKDGKYGFCPHEALFTMGGNAEGQPCKFPFRFQGTSYDSCTTEGRTDGYRWCGTTEDYDRDKKYGFCPETAMSTVGGNSEGAPCVFPFTFLGNKYESCTSAGRSDGKMWCATTANYDDDRKWGFCPDQGYSLFLVAAHEFGHAMGLEHSQDPGALMAPIYTYTKNFRLSQDDIKGIQELYGASPDIDLGTGPTPTLGPVTPEICKQDIVFDGIAQIRGEIFFFKDRFIWRTVTPRDKPMGPLLVATFWPELPEKIDAVYEAPQEEKAVFFAGNEYWIYSASTLERGYPKPLTSLGLPPDVQRVDAAFNWSKNKKTYIFAGDKFWRYNEVKKKMDPGFPKLIADAWNAIPDNLDAVVDLQGGGHSYFFKGAYYLKLENQSLKSVKFGSIKSDWLGC",hydraulic conductance of Bruch's membrane,[8],increases hydraulic conductance
